This assay relates to L1210 leukemia ip in BDF1 mice, survival T/C. Briefly: NCI In Vivo Anticancer Drug Screen. Data for tumor model L1210 Leukemia (intraperitoneal) in B6D2F1 (BDF1) mice. The note with it: endpoint: mean survival time, higher = longer survival. The gist of the method: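 Tumor cells were implanted, animals were treated, and survival was followed. The result divides the treated measurement by the vehicle-control measurement.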

[1] abbreviates: dose: 50.0 mg/kg/injection, schedule: Q01DX001 (ip), vehicle: saline.
[2] abbreviates: dose: 100.0 mg/kg/injection, schedule: Q01DX001 (ip), vehicle: saline.
[3] abbreviates: dose: 200.0 mg/kg/injection, schedule: Q01DX001 (ip), vehicle: saline.
Setting [4] is: dose: 400.0 mg/kg/injection, schedule: Q01DX001 (ip), vehicle: saline.
The mark [5] stands for this setting: dose: 100.0 mg/kg/injection, schedule: Q04DX003 (ip), vehicle: Klucel (hydroxypropylcellulose) (HPC).
The mark [6] stands for this setting: dose: 200.0 mg/kg/injection, schedule: Q04DX003 (ip), vehicle: Klucel (hydroxypropylcellulose) (HPC).
[7] abbreviates: dose: 400.0 mg/kg/injection, schedule: Q04DX003 (ip), vehicle: Klucel (hydroxypropylcellulose) (HPC).

The structures appear in SMILES notation. Where “and” joins values, the source holds several entries; their conditions need not be identical. Identical values can stand only once. Toxic doses and inconclusive results are not listed.

As to `C=C1C(=O)O[C@H]2C[C@@H](C)[C@@H]3CC(=O)OC[C@@]3(C)CC12` (stereo not given in full), the T/C reads like this: (dose: 25.0 mg/kg/injection, schedule: Q01DX009 (ip), vehicle: saline with Tween-80) 108 % of control; (dose: 25.0 mg/kg/injection, schedule: Q04DX003 (ip), vehicle: saline with Tween-80) 99 % of control; (dose: 50.0 mg/kg/injection, schedule: Q01DX009 (ip), vehicle: saline with Tween-80) 105 % of control; (dose: 50.0 mg/kg/injection, schedule: Q04DX003 (ip), vehicle: saline with Tween-80) 105 % of control; (dose: 100.0 mg/kg/injection, schedule: Q01DX009 (ip), vehicle: saline with Tween-80) 101 % of control; (dose: 100.0 mg/kg/injection, schedule: Q04DX003 (ip), vehicle: saline with Tween-80) 93 % of control and 103 % of control.

On to `CN=C(N)c1ccc(N=C(N)c2ccc(N=C(N)c3ccc(N)cc3)cc2)cc1`, for which the T/C reads like this: (dose: 4.25 mg/kg/injection, schedule: Q01DX Z (ip), vehicle: water) 112 % of control; (dose: 8.5 mg/kg/injection, schedule: Q01DX Z (ip), vehicle: water) 120 % of control; (dose: 35.0 mg/kg/injection, schedule: Q01DX015 (ip), vehicle: saline) 151 % of control; under setting [1], 115 % of control; (dose: 62.5 mg/kg/injection, schedule: Q01DX Z (oral), vehicle: water) 101 % of control; (dose: 125.0 mg/kg/injection, schedule: Q01DX Z (oral), vehicle: water) 103 % of control. For the same compound, the T/C (dose: 250.0 mg/kg/injection, schedule: Q01DX Z (oral), vehicle: water) is 102 % of control.

As to `Cc1ccc2c(c1)Oc1ccccc1S2`, the T/C is, setting by setting: (dose: 100.0 mg/kg/injection, schedule: Q04DX002 (ip), vehicle: saline with Tween-80) 96 % of control; (dose: 200.0 mg/kg/injection, schedule: Q04DX002 (ip), vehicle: saline with Tween-80) 103 % of control; (dose: 400.0 mg/kg/injection, schedule: Q04DX002 (ip), vehicle: saline with Tween-80) 103 % of control.

With `Cc1cc2c(cc1C)N(C(=O)CN1CCOCC1)CC(=O)N2`, the T/C reads like this: (dose: 50.0 mg/kg/injection, schedule: Q01DX009 (ip), vehicle: acetone) 95 % of control; (dose: 100.0 mg/kg/injection, schedule: Q01DX009 (ip), vehicle: acetone) 88 % of control; (dose: 100.0 mg/kg/injection, schedule: Q04DX003 (ip), vehicle: acetone) 98 % of control; (dose: 200.0 mg/kg/injection, schedule: Q01DX009 (ip), vehicle: acetone) 95 % of control; (dose: 200.0 mg/kg/injection, schedule: Q04DX003 (ip), vehicle: acetone) 97 % of control; (dose: 400.0 mg/kg/injection, schedule: Q04DX003 (ip), vehicle: acetone) 92 % of control.

As to `C=CCOc1c(Cl)cc(Cl)cc1Cl`, the T/C by setting is: under setting [2], 100 % of control; under setting [3], 100 % of control; under setting [4], 100 % of control.

Take `CC(NC(=O)CNC(=O)c1cnc2ccccc2n1)C(=O)O` (stereo not given): the T/C was 100 % of control under setting [2], 101 % of control under setting [3] and 94 % of control under setting [4].

In the case of `CCC(CC)(COC(=O)c1ccc(N)cc1)C1CCCCC1`, the T/C (dose: 150.0 mg/kg/injection, schedule: Q01DX001 (ip), vehicle: carboxymethylcellulose (CMC)) was 94 % of control.

Regarding `Brc1ccc2c(c1)CCC2`, the T/C is, setting by setting: under setting [1], 93 % of control; under setting [2], 106 % of control and 88 % of control; under setting [3], 94 % of control and 95 % of control; under setting [4], 97 % of control and 98 % of control.

As to `CC1(C)OCC(N)(CO)CO1`, the T/C is 105 % of control (dose: 100.0 mg/kg/injection, schedule: Q01DX005 (ip), vehicle: water); 109 % of control (dose: 100.0 mg/kg/injection, schedule: Q04DX003 (ip), vehicle: water); 107 % of control (dose: 200.0 mg/kg/injection, schedule: Q01DX005 (ip), vehicle: water); 108 % of control (dose: 200.0 mg/kg/injection, schedule: Q04DX003 (ip), vehicle: water); 97 % of control (dose: 400.0 mg/kg/injection, schedule: Q01DX005 (ip), vehicle: water); 98 % of control (dose: 400.0 mg/kg/injection, schedule: Q04DX003 (ip), vehicle: water).

Consider `CCOc1c(/C=N/NC(=O)c2ccccc2OC)cccc1OC`, for which the T/C is 116 % of control (dose: 100.0 mg/kg/injection, schedule: Q01DX009 (ip), vehicle: Klucel (hydroxypropylcellulose) (HPC)); 102 % of control under setting [5]; 95 % of control (dose: 200.0 mg/kg/injection, schedule: Q01DX009 (ip), vehicle: Klucel (hydroxypropylcellulose) (HPC)); 105 % of control under setting [6]; 107 % of control under setting [7].

Regarding `Cc1ncc([N+](=O)[O-])n1C`, the T/C by setting is: under setting [5], 100 % of control; under setting [6], 100 % of control; under setting [7], 97 % of control.

Consider `CC(=O)c1cccc2ccccc12`, for which the T/C is 103 % of control (dose: 25.0 mg/kg/injection, schedule: Q04DX002 (ip), vehicle: Klucel (hydroxypropylcellulose) (HPC)); 100 % of control (dose: 50.0 mg/kg/injection, schedule: Q04DX002 (ip), vehicle: Klucel (hydroxypropylcellulose) (HPC)); 103 % of control (dose: 100.0 mg/kg/injection, schedule: Q04DX002 (ip), vehicle: Klucel (hydroxypropylcellulose) (HPC)).

For the origin of these results see PubChem BioAssay AID248 (DTP/NCI, 2004).
